Assay results as given in paper PMC12332667, “Role of Structural Modifications in Peptidomimetic Compounds as Potential Antimicrobial Agents against Staphylococcus aureus and Streptococcus pyogenes: Balancing Bioavailability, Safety, and Antimicrobial Activity” (ACS Omega, 2025).
Values after ≈ are worked out from the molar mass of the structure shown.

What was measured:
S. agalactiae ATCC 27956 = assay: MIC/MBC broth microdilution, S. agalactiae; assay type: cell-based, Streptococcus agalactiae; details: S. agalactiae
Protocol: (§1) S. aureus (ATCC 29213),S. pyogenes (ATCC 19615),Streptococcus agalactiae (ATCC 27956),Escherichia coli (ATCC 25922),Proteus vulgaris (ATCC 6896),K. pneumoniae (ATCC 700603) andP. aeruginosa (ATCC 10145) reference strains, as well asStaphylococcus cohnii, Enterococcus faecalis, Staphylococcus schleiferi, Staphylococcus intermedius and Streptococcus mutans clinical isolates, were used to test the antibacterial activity of the peptidomimetics. Bacteria were aerobically cultured for 18 h at 37 °C in plates with sterilized brain heart infusion (BHI) broth (Sigma-Aldrich, USA) media mixed with bacteriological agar (Sigma-Aldrich, USA) using the streak plate method. After 18 h, BHI broth was inoculated to 0.5 on the McFarland scale and diluted to approximately 10^5 CFU/mL. To achieve a final stock concentration of 1024 μg/mL, the peptidomimetics were dissolved in sterile water, and 5–10% of absolute ethanol or dimethyl sulfoxide (DMSO) was added. The antibacterial activities were determined by using the standard broth microdilution method of the National Committee for Clinical Laboratory Standards. The process involved adding serially diluted peptidomimetics to consecutive wells of a 96-well microtiter plate (Brand, Germany) holding media with microorganisms. The inoculated plates treated with peptides were then placed in an incubator at 37 °C for 18 h. The MIC value was determined as the lowest concentration of peptidomimetic at which there was no obvious growth (equal or more than 90% of the untreated sample). […] The lowest concentration yielding growth in no more than 3 colonies, corresponding to at least a 99.9% kill rate, was taken as MBC. Each biological replicate included control wells with the addition of water, DMSO, and ethanol as respective solvent controls. All experiments were conducted with consistent adherence to growth and sterility controls and were performed at least in technical triplicate with three biological repeats.

S. mutans c.i. = assay: MIC/MBC broth microdilution, S. mutans; assay type: cell-based, Streptococcus mutans
Protocol: as §1

S. schleiferi c.i. = assay: MIC/MBC broth microdilution, S. schleiferi; assay type: cell-based, Staphylococcus schleiferi
Protocol: as §1

S. pyogenes ATCC 19615 = assay: MIC/MBC broth microdilution, S. pyogenes; assay type: cell-based, Streptococcus pyogenes; details: S. pyogenes
Protocol: as §1

S. cohnii c.i. = assay: MIC/MBC broth microdilution, S. cohnii; assay type: cell-based, Staphylococcus cohnii
Protocol: as §1

E. faecalis c.i. = assay: MIC/MBC broth microdilution, E. faecalis; assay type: cell-based, Enterococcus faecalis
Protocol: as §1

[1] = test system: K. pneumoniae ATCC 700603; assay: MIC/MBC broth microdilution, K. pneumoniae; assay type: cell-based
Protocol: as §1

[2] = test system: human dermal fibroblast cell line (46BR.1N); assay: XTT cell proliferation assay, fibroblasts; assay type: cell-based; details: XTT
Protocol: (§2) In our study, we used two distinct cell types: immortalized human HaCaT keratinocytes (DKFZ, Heidelberg, Germany) and a human dermal fibroblast cell line (46BR.1N). […] Cultures were maintained in a humidified atmosphere with 5% CO2 at 37 °C in 25 cm^2 culture flasks with the medium replenished every 2 days. The condition of the cells was monitored using optical microscopy. […] After 24 h of incubation, the medium was replaced with serum-free HG-DMEM containing appropriate concentrations of peptidomimetics. All solutions used in the experiments were prepared with double-distilled water or with the addition of ethanol under sterile conditions to ensure compatibility with the conditions of the bacteriological assay. For 72 h of incubation, half of the medium was replaced with fresh medium after 48 h, and cells were stimulated with peptides for a second time. The XTT cell proliferation assay was then performed according to the manufacturer’s instructions (Roche, Switzerland). Cells were treated with the peptides for either 48 or 72 h, followed by the addition of XTT reagent, and the plates were then incubated at 37 °C in a 5% CO2 environment for 4 h. Plate readings were taken using a standard plate reader at a wavelength of 490 nm (OD = 490 nm). […] Statistical significance was determined with a Mann–Whitney U test with statistical significance p ≤ 0.05. Analysis was performed with Statistica software, and graphs were prepared in GraphPad Prism.

fibroblasts (46BR.1N) = assay: LDH cytotoxicity test, fibroblasts; assay type: cell-based; details: 48 h
Protocol: (§3) In our study, we used two distinct cell types: immortalized human HaCaT keratinocytes (DKFZ, Heidelberg, Germany) and a human dermal fibroblast cell line (46BR.1N). […] Cultures were maintained in a humidified atmosphere with 5% CO2 at 37 °C in 25 cm^2 culture flasks with the medium replenished every 2 days. The condition of the cells was monitored using optical microscopy.
(§4) Cell death in immortalized human keratinocytes (HaCaT) and fibroblasts (46BR.1N) was measured by quantifying the lactate dehydrogenase (LDH) activity using a commercial kit (Roche, Switzerland). Cells were seeded in 96-well plates at a density of 5000 cells per well in DMEM high glucose medium supplemented with 10% FBS. After 24 h of incubation, the medium was replaced with serum-free medium containing various concentrations of peptidomimetics (50, 100, and 150 μg/mL). After 48 h, supernatants were collected for LDH analysis. Plate readings were taken spectrophotometrically using a 450 nm wavelength. Cell death measurements were normalized to an untreated control (0%), with 1% Triton X-100 detergent used as a positive control to induce maximum LDH release, indicating maximal cytotoxicity. Statistical significance was determined with a Mann–Whitney U test with a statistical significance p ≤ 0.05. Analysis was performed with Statistica software (Krakow, Poland) and graphs were prepared in GraphPad Prism (Boston, USA).

P. aeruginosa ATCC 10145 = assay: MIC/MBC broth microdilution, P. aeruginosa; assay type: cell-based
Protocol: as §1

E. coli ATCC 25922 = assay: MIC/MBC broth microdilution, E. coli; assay type: cell-based, Escherichia coli
Protocol: as §1

S. intemrdius c.i. = assay: MIC/MBC broth microdilution, S. intermedius; assay type: cell-based, Staphylococcus intermedius
Protocol: as §1

P. vulgaris ATCC 6896 = assay: MIC/MBC broth microdilution, P. vulgaris; assay type: cell-based, Proteus vulgaris
Protocol: as §1

S. aureus ATCC 43300 = assay: MIC/MBC broth microdilution, S. aureus; assay type: cell-based, Staphylococcus aureus; details: S. aureus
[3] = test system: immortalized human keratinocytes (HaCaT); assay: LDH cytotoxicity test, keratinocytes; assay type: cell-based; details: 48 h
Protocol: as §3, §4

[4] = test system: immortalized human HaCaT keratinocytes; assay: XTT cell proliferation assay, keratinocytes; assay type: cell-based
Protocol: as §2

## Cc1ccccc1COC(=O)N[C@@H](CCCNC(=N)N)C(=O)N[C@@H](CC(C)C)C(=O)N[C@H](CNC(=O)/C=C/c1ccccc1)C(C)C [Compound A-210]
S. agalactiae ATCC 27956; H2O
  MIC: 16 µg/mL (≈ 24.6 µM)
S. agalactiae ATCC 27956; water additive DMSO
  MBC: 32 µg/mL (≈ 49.2 µM)
  MIC: 16 µg/mL (≈ 24.6 µM)
S. agalactiae ATCC 27956; water additive EtOH
  MIC: 32 µg/mL (≈ 49.2 µM)
S. mutans c.i.; H2O
  MIC: > 512 µg/mL
S. mutans c.i.; water additive DMSO
  MIC: > 512 µg/mL
S. mutans c.i.; water additive EtOH
  MIC: > 512 µg/mL
S. schleiferi c.i.; H2O
  MBC: 8 µg/mL (≈ 12.3 µM)
  MIC: 4 µg/mL (≈ 6.16 µM)
S. schleiferi c.i.; water additive DMSO
  MBC: 16 µg/mL (≈ 24.6 µM)
  MIC: 8 µg/mL (≈ 12.3 µM)
S. schleiferi c.i.; water additive EtOH
  MBC: 8 µg/mL (≈ 12.3 µM)
  MIC: 4 µg/mL (≈ 6.16 µM)
S. pyogenes ATCC 19615; H2O
  MIC: 32 µg/mL (≈ 49.2 µM)
S. pyogenes ATCC 19615; water additive DMSO
  MIC: 32 µg/mL (≈ 49.2 µM)
S. pyogenes ATCC 19615; water additive EtOH
  MIC: 32 µg/mL (≈ 49.2 µM)
S. cohnii c.i.; water additive DMSO
  MIC: 32 µg/mL (≈ 49.2 µM)
S. cohnii c.i.; water additive EtOH
  MIC: 32 µg/mL (≈ 49.2 µM)
E. faecalis c.i.; H2O
  MBC: 256 µg/mL (≈ 394 µM)
E. faecalis c.i.; water additive DMSO
  MBC: 256 µg/mL (≈ 394 µM)
E. faecalis c.i.; water additive EtOH
  MBC: 256 µg/mL (≈ 394 µM)
  MIC: 32 µg/mL (≈ 49.2 µM)
[1]; H2O
  MIC: > 512 µg/mL
[1]; water additive DMSO
  MIC: > 512 µg/mL
[1]; water additive EtOH
  MIC: > 512 µg/mL
[2]; 150 μg/mL
  proliferation relative to control at 150 μg/mL (highest tested concentration): 50%
[2]; 48 and 72 h, 0.01–150 μg/mL
  effect on proliferation, in words: negative impact
Fibroblasts (46BR.1N); 50-150 μg/mL
  cytotoxicity (LDH), in words: no negative effect at 50 μg/mL concentration
Fibroblasts (46BR.1N); LDH
  concentration at which cytotoxic effect starts: 100 µg/mL
P. aeruginosa ATCC 10145; H2O
  MIC: 512 µg/mL (≈ 788 µM)
P. aeruginosa ATCC 10145; water additive DMSO
  MIC: 512 µg/mL (≈ 788 µM)
P. aeruginosa ATCC 10145; water additive EtOH
  MBC: 512 µg/mL (≈ 788 µM)
  MIC: 256 µg/mL (≈ 394 µM)
E. coli ATCC 25922; H2O
  MIC: > 512 µg/mL
E. coli ATCC 25922; water additive DMSO
  MIC: > 512 µg/mL
E. coli ATCC 25922; water additive EtOH
  MIC: > 512 µg/mL
S. intemrdius c.i.; H2O
  MBC: 16 µg/mL (≈ 24.6 µM)
  MIC: 16 µg/mL (≈ 24.6 µM)
S. intemrdius c.i.; water additive DMSO
  MBC: 16 µg/mL (≈ 24.6 µM)
  MIC: 16 µg/mL (≈ 24.6 µM)
S. intemrdius c.i.; water additive EtOH
  MBC: 16 µg/mL (≈ 24.6 µM)
  MIC: 16 µg/mL (≈ 24.6 µM)
P. vulgaris ATCC 6896; H2O
  MBC: 256 µg/mL (≈ 394 µM)
P. vulgaris ATCC 6896; water additive DMSO
  MBC: 256 µg/mL (≈ 394 µM)
S. aureus ATCC 43300; H2O
  MIC: 32 µg/mL (≈ 49.2 µM)
S. aureus ATCC 43300; water additive DMSO
  MIC: 32 µg/mL (≈ 49.2 µM)
S. aureus ATCC 43300; water additive EtOH
  MBC: 32 µg/mL (≈ 49.2 µM)
  MIC: 16 µg/mL (≈ 24.6 µM)
[3]; 50-150 μg/mL
  cytotoxicity (LDH), in words: no negative effect at 50 μg/mL concentration
[3]; LDH
  concentration at which cytotoxic effect starts: 100 µg/mL
[4]; 72 h
  proliferation: less than 50%
[4]; XTT, 150 μg/mL
  proliferation relative to control at 150 μg/mL (highest tested concentration): 50%
[4]; XTT, 48 and 72 h, 0.01–150 μg/mL
  effect on proliferation, in words: negative impact
